Patent publication US3976770A, “Sar'-(OMe)Thr^8 Angiotensin II as an angiotensin II antagonist” (priority 1975, dated 1976)

How the values were obtained:
blood pressure = test: in vivo pressor response on infusion into anesthetized, vagotomized rats; conditions: scale set artificially at 100 for angiotensin II
Method: In the in vivo assays, rats were anesthetized with sodium amytal and further treated with 0.6 mg atropine and pentolinium tartrate. They were vagotomized and direct recording of the blood pressure was measured through the carotid artery, while the femoral artery was used for infusing the desired dose over a period of 30 minutes in a physiological saline solution.
The dose-response curves of angiotensin II at 0.9 to 54 ng/kg/min. were compared by linear regression analysis with those of the antagonist at doses of 1, 10, 100 and 1000 ng/kg/min. Infusion of the above antagonist into rats thus prepared led to the initial transient pressor response of 0.48 on a scale set artificially at 100 for angiotensin II using the same system.

[1] = system: pressor response of angiotensin II; test: blocking of the pressor response of angiotensin II in ganglion blocked rats; type: in vivo
Method: For determining its antagonistic properties the compound was infused intravenously in ganglion blocked rats at a dose level of 125, 250, 500, 1250 ng/kg/min. The blocking effect of the compound was calculated from the dose-response curve of angiotensin II before and during the infusion of the analog. General procedure adopted for this assay has been described by Bumpus et al., Circ. Res. 32-33 (Supplement I), I-150 (1973). […] The dose-ratio obtained was 62.50 ± 14.93 at a dose-level of 250 ng/kg/min.

[2] = system: acute unilateral renal hypertensive rats; test: blood pressure in acute unilateral renal hypertensive rats; type: in vivo; conditions: intravenous infusion
[3] = water solubility and storage of solution; type: physicochemical
Method: Since the above compound is particularly suitable for injection or infusion, it is particularly valuable that the compound is watersoluble. A suitable dosage unit can be prepared by simply dissolving the above compound in water or physiological saline at a concentration of between 50 and 6000 ng/ml. […] A commonly employed buffer for an injectable solution is Tris(hydroxymethyl) aminomethane but simple salts such as sodium phosphate or acetate can be used. Preferably, the vehicle or medium in which the compound of Formula I is dissolved for an injectable or infusable solution is buffered to a pH of 7 to 7.5.

[4] = duration of action after i.m. injection of an oil solution; type: in vivo; conditions: single i.m. injection, dissolved in oil
Method: The duration of action of the compound can be prolonged by injecting an oil solution intramuscularly. Oils suitable for this purpose are cod liver oil, sesame oil, refined coconut oil, etc. Antagonistic effects are thus observed for 24 hours or longer after a single i.m. injection of the drug dissolved in such an oil.

CC[C@H](C)[C@H](NC(=O)[C@H](Cc1ccc(O)cc1)NC(=O)[C@@H](NC(=O)[C@H](CCCNC(=N)N)NC(=O)CNC)C(C)C)C(=O)N[C@@H](Cc1cnc[nH]1)C(=O)N1CCC[C@H]1C(=O)N[C@H](C(=O)O)[C@@H](C)OC [Formula I, Sar'-(OMe)Thr^8 Angiotensin II]
initial transient pressor response (blood pressure): 0.48 | dose-ratio ([1]; dose-level of 250 ng/kg/min, intravenous infusion, ganglion blocked rats): 62.50 ± 14.93 | pressor effect of angiotensin II ([1]; intravenous infusion into rats in a very small amount): inhibited | dose level at which the pressor response of angiotensin II was blocked ([1]; intravenous infusion, ganglion blocked rats): ≥ 125 ng/kg/min | blood pressure [2]: capable of reducing blood pressure | water solubility [3]: watersoluble | storage of solution without deterioration ([3]; solution in water or physiological saline, 50-6000 ng/ml, proper conditions): several weeks without deterioration | duration of antagonistic effects [4]: ≥ 24 h
